Results reported in patent US7709471B2, “Compounds” (AstraZeneca AB, priority 2006, dated 2010).

Test system: human colon tumour cell line HT29
Test: Cellular Assay (phosphohistone H3 Ser10 mitotic marker, HT29)
Assay type: cell-based
Conditions: HT-29, 24 h, HT29 cells, read-out: IC50 (cellular assay, phosphohistone H3)

SMILES	IC50
CN1C(=O)CCN(C2CCCC2)c2nc(Nc3cc(F)c(C(=O)NCCN4CCCC4)cc3F)ncc21 [Example 335, 4-[(2-cyclopentyl-6-methyl-5-oxo-2,6,9,11-tetrazabicyclo[5.4.0]undeca-7,9,11-trien-10-yl)amino]-2,5-difluoro-N-(2-pyrrolidin-1-ylethyl)benzamide]	< 300 nM
CCOc1cc(C(=O)N[C@@H]2CCN(C)C2)ccc1Nc1ncc2c(n1)N(C(C)C)CCC(=O)N2C [Example 284, 3-ethoxy-4-[(6-methyl-5-oxo-2-propan-2-yl-2,6,9,11-tetrazabicyclo[5.4.0]undeca-7,9,11-trien-10-yl)amino]-N-[(3R)-1-methylpyrrolidin-3-yl]benzamide]	< 30000 nM
CCOc1cc(C(=O)NC2CCC(N(C)C)CC2)ccc1Nc1ncc2c(n1)N(C(C)C)CC(C)(C)C(=O)N2C (stereo not drawn) [Example 294, N-(4-dimethylaminocyclohexyl)-3-ethoxy-4-[(4,4,6-trimethyl-5-oxo-2-propan-2-yl-2,6,9,11-tetrazabicyclo[5.4.0]undeca-7,9,11-trien-10-yl)amino]benzamide]	< 1000 nM
COc1cc(C(=O)NC2CCC(N3CCC3)CC2)ccc1Nc1ncc2c(n1)N(C1CCCC1)CCC(=O)N2C (stereo not drawn) [Example 346, N-[4-(azetidin-1-yl)cyclohexyl]-4-[(2-cyclopentyl-6-methyl-5-oxo-2,6,9,11-tetrazabicyclo[5.4.0]undeca-7,9,11-trien-10-yl)amino]-3-methoxy-benzamide]	< 300 nM
CCOc1cc(C(=O)N[C@@H]2CCN(C)C2)ccc1Nc1ncc2c(n1)N(C(C)C)CC(C)(C)C(=O)N2C [Example 293, 3-ethoxy-N-[(3R)-1-methylpyrrolidin-3-yl]-4-[(4,4,6-trimethyl-5-oxo-2-propan-2-yl-2,6,9,11-tetrazabicyclo[5.4.0]undeca-7,9,11-trien-10-yl)amino]benzamide]	< 1000 nM
CCN1CCC(NC(=O)c2ccc(Nc3ncc4c(n3)N(C(C)C)CC(C)(C)C(=O)N4C)c(OC)c2)CC1 [Example 300, N-(1-ethyl-4-piperidyl)-3-methoxy-4-[(4,4,6-trimethyl-5-oxo-2-propan-2-yl-2,6,9,11-tetrazabicyclo[5.4.0]undeca-7,9,11-trien-10-yl)amino]benzamide]	< 300 nM
COc1cc(C(=O)NC2CCN(CC(C)C)CC2)ccc1Nc1ncc2c(n1)N(C1CCCC1)CCC(=O)N2C [Example 340, 4-[(2-cyclopentyl-6-methyl-5-oxo-2,6,9,11-tetrazabicyclo[5.4.0]undeca-7,9,11-trien-10-yl)amino]-3-methoxy-N-[1-(2-methylpropyl)-4-piperidyl]benzamide]	< 300 nM
C#CCN1CCC(=O)N(C)c2cnc(Nc3ccc(C(=O)NC4CCN(C)CC4)cc3OC)nc21 [Example 271, 3-methoxy-4-[(6-methyl-5-oxo-2-prop-2-ynyl-2,6,9,11-tetrazabicyclo[5.4.0]undeca-7,9,11-trien-10-yl)amino]-N-(1-methyl-4-piperidyl)benzamide]	< 30000 nM
CN(C)CC(C)(C)CNC(=O)c1ccc(Nc2ncc3c(n2)N(C2CCCC2)CC2(CC2)C(=O)N3C)c(Cl)c1 [Example 392, 3-chloro-4-(9′-cyclopentyl-5′-methyl-6′-oxo-5′,6′,8′,9′-tetrahydrospiro[cyclopropane-1,7′-pyrimido[5,4-b][1,4]diazepine]-2′-ylamino)-N-(3-dimethylamino-2,2-dimethyl-propyl)benzamide]	< 300 nM
CCC1(CC)CN(C(C)C)c2nc(Nc3ccc(C(=O)NC4CCN(C)CC4)cc3OC)ncc2N(C)C1=O [Example 304, 4-[(4,4-diethyl-6-methyl-5-oxo-2-propan-2-yl-2,6,9,11-tetrazabicyclo[5.4.0]undeca-7,9,11-trien-10-yl)amino]-3-methoxy-N-(1-methyl-4-piperidyl)benzamide]	< 300 nM
CN1C(=O)C2(CC2)CN(C2CCCCC2)c2nc(Nc3ccc(C(=O)NC4C[C@H]5CCC[C@@H](C4)N5C)cc3F)ncc21 (stereo partly drawn) [Example 435, 4-(9′-cyclohexyl-5′-methyl-6′-oxo-5′,6′,8′,9′-tetrahydrospiro[cyclopropane-1,7′-pyrimido[5,4-b][1,4]diazepine]-2′-ylamino)-3-fluoro-N-[(1S,5R)-9-methyl-9-azabicyclo[3.3.1]non-7-yl]benzamide]	< 300 nM

Second part, the compound after the results:

IC50	SMILES
< 300 nM	CCN1CC[C@@H](NC(=O)c2ccc(Nc3ncc4c(n3)N(C3CCCCC3)CC3(CC3)C(=O)N4C)c(OC)c2)C1 [Example 441, 4-(9′-cyclohexyl-5′-methyl-6′-oxo-5′,6′,8′,9′-tetrahydrospiro[cyclopropane-1,7′-pyrimido[5,4-b][1,4]diazepine]-2′-ylamino)-N-[(3R)-1-ethylpyrrolidin-3-yl]-3-methoxy-benzamide]
< 300 nM	CN1C(=O)C2(CC2)CN(C2CCCCC2)c2nc(Nc3cc(F)c(C(=O)NC4CCC(N(C)C)CC4)cc3Cl)ncc21 (stereo not drawn) [Example 437, 5-chloro-4-(9′-cyclohexyl-5′-methyl-6′-oxo-5′,6′,8′,9′-tetrahydrospiro[cyclopropane-1,7′-pyrimido[5,4-b][1,4]diazepine]-2′-ylamino)-N-(4-dimethylaminocyclohexyl)-2-fluoro-benzamide]
< 300 nM	COc1cc(C(=O)N[C@@H]2CCN(C)C2)ccc1Nc1ncc2c(n1)N(C1CCCCC1)CCC(=O)N2C [Example 421, 4-[(2-cyclohexyl-6-methyl-5-oxo-2,6,9,11-tetrazabicyclo[5.4.0]undeca-7,9,11-trien-10-yl)amino]-3-methoxy-N-[(3R)-1-methylpyrrolidin-3-yl]benzamide]
< 1000 nM	CCN1CCC(NC(=O)c2cc(Cl)c(Nc3ncc4c(n3)N(C(C)C)CC3(CC3)C(=O)N4C)cc2F)CC1 [Example 311, 5-chloro-N-(1-ethylpiperidin-4-yl)-2-fluoro-4-(9′-isopropyl-5′-methyl-6′-oxo-5′,6′,8′,9′-tetrahydrospiro[cyclopropane-1,7′-pyrimido[5,4-b][1,4]diazepine]-2′-ylamino)benzamide]
< 300 nM	COc1cc(C(=O)N[C@@H]2CCN(C)C2)c(F)cc1Nc1ncc2c(n1)N(C1CCCC1)CC1(CC1)C(=O)N2C [Example 399, 4-(9′-cyclopentyl-5′-methyl-6′-oxo-5′,6′,8′,9′-tetrahydrospiro[cyclopropane-1,7′-pyrimido[5,4-b][1,4]diazepine]-2′-ylamino)-2-fluoro-5-methoxy-N-[(3R)-1-methylpyrrolidin-3-yl]benzamide]
< 300 nM	COc1cc(C(=O)N[C@@H]2CCN(C)C2)c(F)cc1Nc1ncc2c(n1)N(C1CCCCC1)CC1(CC1)C(=O)N2C [Example 438, 4-(9′-cyclohexyl-5′-methyl-6′-oxo-5′,6′,8′,9′-tetrahydrospiro[cyclopropane-1,7′-pyrimido[5,4-b][1,4]diazepine]-2′-ylamino)-2-fluoro-5-methoxy-N-[(3R)-1-methylpyrrolidin-3-yl]benzamide]
< 300 nM	COc1cc(C(=O)NCCN2CCCC2)c(F)cc1Nc1ncc2c(n1)N(C1CCCCC1)CC1(CC1)C(=O)N2C [Example 444, 4-(9′-cyclohexyl-5′-methyl-6′-oxo-5′,6′,8′,9′-tetrahydrospiro[cyclopropane-1,7′-pyrimido[5,4-b][1,4]diazepine]-2′-ylamino)-2-fluoro-5-methoxy-N-(2-pyrrolidin-1-ylethyl)benzamide]
